Experimental data: the CheMixHub viscosity set
Several values for one entry are separate records, joined by “and”; a condition that tells them apart may be missing. Identical values can stand only once. ± gives the uncertainty stated by the source.

CCOP(=O)(OCC)OCC
Conditions | viscosity [mPa·s]
298.15 K, 101.3 kPa | 1.503 ± 0.022

Clc1ccccc1
Conditions | viscosity
293.15 K, 101 kPa | 0.768 ± 0.008 mPa·s and 0.793 ± 0.014 mPa·s and 0.8062 ± 0.021 mPa·s
293.15 K, 101.33 kPa | 0.806 ± 0.011 mPa·s and 0.8522 ± 0.045 mPa·s
293.45 K, 101.33 kPa | 0.8265 ± 0.011 mPa·s
298.15 K, 101.3 kPa | 0.773 ± 0.011 mPa·s
298.15 K, 101.33 kPa | 0.8131 ± 0.043 mPa·s and 0.755 ± 0.008 mPa·s
299 K, 101 kPa | 1.182 mPa·s
303.15 K, 101.3 kPa | 0.725 ± 0.01 mPa·s
303.55 K, 101.33 kPa | 0.743 ± 0.0086 mPa·s
308.15 K, 101.3 kPa | 0.666 ± 0.018 mPa·s and 0.683 ± 0.01 mPa·s
312.75 K, 101.33 kPa | 0.6695 ± 0.0084 mPa·s
313.15 K, 101.33 kPa | 0.6469 ± 0.0064 mPa·s and 0.639 ± 0.005 mPa·s
314.25 K, 101.33 kPa | 0.643 ± 0.0081 mPa·s
318.15 K, 101 kPa | 0.5629 ± 0.056 mPa·s and 0.5924 ± 0.021 mPa·s and 0.601 ± 0.016 mPa·s
318.15 K, 101.3 kPa | 0.615 ± 0.016 mPa·s
318.15 K, 101.33 kPa | 0.607 ± 0.006 mPa·s
322.35 K, 101.33 kPa | 0.6069 ± 0.007 mPa·s
323.15 K, 101 kPa | 0.5724 ± 0.0052 mPa·s and 0.5701 ± 0.023 mPa·s and 0.566 ± 0.015 mPa·s
323.15 K, 101.33 kPa | 0.5724 ± 0.0058 mPa·s

CC1=CCC(=C(C)C)CC1
101 kPa
Conditions | viscosity [mPa·s]
303.15 K | 1.007 ± 0.055
308.15 K | 0.945 ± 0.051
313.15 K | 0.884 ± 0.048

CCCCCC(=O)O.CCCCCC(=O)[O-].CC[NH+](CC)CCO
101 kPa
Conditions | viscosity [mPa·s]
293.15 K | 76.9 ± 1.7
298.15 K | 60.01 ± 1.3
303.15 K | 47.52 ± 1
308.15 K | 38.14 ± 0.82
313.15 K | 31 ± 0.67
318.15 K | 25.48 ± 0.55
323.15 K | 21.16 ± 0.45

CCCCn1cc[n+](C)c1.F[P-](F)(F)(F)(F)F
viscosity
Conditions | 293.15 K | 293.2 K | 298.15 K | 303.15 K | 308.15 K | 308.19 K | 313.15 K | 318.15 K | 323.15 K
100 kPa | 336.9 ± 22 mPa·s | 342.7 ± 67 mPa·s | 256.7 ± 14 mPa·s | 197.6 ± 9.3 mPa·s | 148.3 ± 5.8 mPa·s | 144 ± 15 mPa·s | 112 ± 3.6 mPa·s | 87.66 ± 2.4 mPa·s | 70.97 ± 1.7 mPa·s
101 kPa | 378 ± 12 mPa·s and 249.5 ± 100 mPa·s and 265.2 ± 10 mPa·s | – | – | 187.6 ± 4.5 mPa·s and 136 ± 54 mPa·s and 165.7 ± 5.5 mPa·s | 101.5 ± 41 mPa·s and 133.9 ± 4.2 mPa·s | – | 129.7 ± 2.8 mPa·s and 79.01 ± 32 mPa·s and 110.8 ± 3.3 mPa·s | 93.5 ± 2 mPa·s and 62.4 ± 25 mPa·s and 95.75 ± 2.8 mPa·s | 88.51 ± 1.8 mPa·s and 47.7 ± 19 mPa·s
